According to US20080096906A1, “AMINOMETHYL-2-IMIDAZOLES” (priority 2006, published 2008):

Target: TAAR1 (Mus musculus, UniProt Q923Y8)
Test: Radioligand binding to TAAR1 on membranes of stably transfected HEK293 cells
Conditions: not given

Sequence of TAAR1 (Q923Y8 whole entry): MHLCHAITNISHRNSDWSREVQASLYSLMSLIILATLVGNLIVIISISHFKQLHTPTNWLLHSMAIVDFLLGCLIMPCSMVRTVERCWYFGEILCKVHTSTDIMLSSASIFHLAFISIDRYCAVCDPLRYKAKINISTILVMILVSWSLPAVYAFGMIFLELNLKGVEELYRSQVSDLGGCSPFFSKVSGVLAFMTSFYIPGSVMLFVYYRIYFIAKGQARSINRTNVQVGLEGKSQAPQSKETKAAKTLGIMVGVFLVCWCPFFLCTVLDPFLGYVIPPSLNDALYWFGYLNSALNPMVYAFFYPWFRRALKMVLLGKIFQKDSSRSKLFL

Structure (SMILES)	Ki
Clc1ccc(NCc2ncc[nH]2)cc1Cl [Example K8, (3,4-dichloro-phenyl)-(1H-imidazol-2-ylmethyl)-amine, reference compound]	0.055 µM
CC(C)N(Cc1ncc[nH]1)c1cccc(OCc2ccccc2)c1 [Example 41, (3-Benzyloxy-phenyl)-(1H-imidazol-2-ylmethyl)-isopropyl-amine]	0.021 µM
CCN(Cc1ncc[nH]1)c1cccc(OCc2ccccc2)c1 [Example 66, (3-Benzyloxy-phenyl)-ethyl-(1H-imidazol-2-ylmethyl)-amine]	0.0263 µM
c1ccc(COc2cccc(NCc3ncc[nH]3)c2)cc1 [Example 62, (3-Benzyloxy-phenyl)-(1H-imidazol-2-ylmethyl)-amine]	0.0028 µM
CC(C)N(Cc1ncc[nH]1)c1cccc(-c2ccccc2)c1 [Example 46, Biphenyl-3-yl-(1H-imidazol-2-ylmethyl)-isopropyl-amine]	0.077 µM
COc1cc(NCc2ncc[nH]2)ccc1Cl [Example 64, (4-Chloro-3-methoxy-phenyl)-(1H-imidazol-2-ylmethyl)-amine]	0.0259 µM
CC(C)N(Cc1ncc[nH]1)c1cccc(Oc2cccnc2)c1 [Example 43, (1H-Imidazol-2-ylmethyl)-isopropyl-[3-(pyridin-3-yloxy)-phenyl]-amine]	0.025 µM
CC(C)N(Cc1ncc[nH]1)c1cccc(Cc2ccccc2)c1 [Example 45, (3-Benzyl-phenyl)-(1H-imidazol-2-ylmethyl)-isopropyl-amine]	0.002 µM
Brc1cccc(NCc2ncc[nH]2)c1 [Example 71, (3-Bromo-phenyl)-(1H-imidazol-2-ylmethyl)-amine]	0.0995 µM
CCN(Cc1ncc[nH]1)c1cccc(Oc2ccccc2)c1 [Example 65, Ethyl-(1H-imidazol-2-ylmethyl)-(3-phenoxy-phenyl)-amine]	0.0111 µM
c1ccc(Oc2cccc(NCc3ncc[nH]3)c2)cc1 [Example 61, (1H-Imidazol-2-ylmethyl)-(3-phenoxy-phenyl)-amine]	0.0261 µM

Results, then the compound that gave them:

Ki	Structure (SMILES)
0.089 µM	Cc1cccc(N(Cc2ncc[nH]2)C(C)C)c1 [Example 39, (1H-Imidazol-2-ylmethyl)-isopropyl-m-tolyl-amine]
0.0331 µM	CCN(Cc1ncc[nH]1)c1ccc(Cl)c(Cl)c1 [Example 68, (3,4-Dichloro-phenyl)-ethyl-(1H-imidazol-2-ylmethyl)-amine]
0.0708 µM	Fc1ccc(NCc2ncc[nH]2)cc1F [Example 73, (3,4-Difluoro-phenyl)-(1H-imidazol-2-ylmethyl)-amine]
0.0839 µM	Fc1ccc(NCc2ncc[nH]2)cc1Cl [Example 74, (3-Chloro-4-fluoro-phenyl)-(1H-imidazol-2-ylmethyl)-amine]
0.081 µM	CN(Cc1ncc[nH]1)c1ccc(Cl)cc1 [Example 5, (4-Chloro-phenyl)-(1H-imidazol-2-ylmethyl)-methyl-amine]
0.065 µM	CC(C)N(Cc1ncc[nH]1)c1cc(Cl)cc(Cl)c1 [Example 37]
0.036 µM	CCN(Cc1ncc[nH]1)c1cccc(Cl)c1 [Example 30, (3-Chloro-phenyl)-ethyl-(1H-imidazol-2-ylmethyl)-amine]
0.03 µM	CN(Cc1ncc[nH]1)c1cccc(Cl)c1 [Example 2, (3-Chloro-phenyl)-(1H-imidazol-2-ylmethyl)-methyl-amine]
0.094 µM	CC(C)N(Cc1ncc[nH]1)c1ccc(F)cc1 [Example 10, (4-Fluoro-phenyl)-(1H-imidazol-2-ylmethyl)-isopropyl-amine]
0.051 µM	CCN(Cc1ncc[nH]1)c1cccc(F)c1 [Example 12, Ethyl-(3-fluoro-phenyl)-(1H-imidazol-2-ylmethyl)-amine]
0.082 µM	CC(C)N(Cc1ncc[nH]1)c1cccc(Oc2ccc(Cl)cc2)c1 [Example 51, [3-(4-Chloro-phenoxy)-phenyl]-(1H-imidazol-2-ylmethyl)-isopropyl-amine]
0.082 µM	COCCN(Cc1ncc[nH]1)c1ccccc1 [Example 21, (1H-Imidazol-2-ylmethyl)-(2-methoxy-ethyl)-phenyl-amine]
0.073 µM	COc1cccc(N(C)Cc2ncc[nH]2)c1 [Example 6, (1H-Imidazol-2-ylmethyl)-(3-methoxy-phenyl)-methyl-amine]

Same assay, conditions: read-out: calculated Kd value of the radioligand; radioligand used at a concentration equal to its Kd; species not stated

Structure (SMILES)	Kd
c1ccc2c(c1)CCCC2C1=NCCN1 (racemic) [[^3H]-rac-2-(1,2,3,4-tetrahydro-1-naphthyl)-2-imidazoline, reference compound]	0.06 µM
